From article PMC7470941 (2020)

Columns and labels:
[1] = system: FPON1 (DNA, i motif, 5'-fluoromonophosphate) TCCCCC; experiment: 19F NMR titration; details: Na+ (50 mM sodium citrate); pH 4.2, 10% D2O, 25 °C; 500 μM FPON1 (125 μM i-motif), 100 μM AMPF reference
[2] = system: FP-hTeloC (DNA, i motif, 5'-fluoromonophosphate) TAACCCTAACCCTAACCCTAACCC; experiment: 19F NMR titration; details: Na+ (50 mM sodium citrate); apparent; pH 4.2, 10% D2O; 212.5 μM FP-hTeloC, 80 μM AMPF reference
[3] = system: FP-hTeloC (DNA, i motif, 5'-fluoromonophosphate) TAACCCTAACCCTAACCCTAACCC; experiment: UV/VIS melting, 295 nm; details: Na+ (50 mM citrate buffer); pH 5.5, 10% D2O; 4 μM DNA; destabilised by excess mitoxantrone
[4] = system: hTeloC (DNA, i motif) TAACCCTAACCCTAACCCTAACCC; experiment: UV/VIS melting, 295 nm; details: Na+ (50 mM citrate buffer); pH 5.5, 10% D2O; destabilised by excess mitoxantrone
[5] = system: FP-hTeloC, ssDNA form at pH 6.4 (DNA, single strand, 5'-fluoromonophosphate) TAACCCTAACCCTAACCCTAACCC; experiment: 19F NMR chemical shift change; details: Na+ (10 mM sodium cacodylate, 100 mM NaCl); pH 6.4, 10% D2O; i-motif:ssDNA 45:55; ΔδF = −0.02 ppm
[6] = system: FP-hTeloC (DNA, i motif, 5'-fluoromonophosphate) TAACCCTAACCCTAACCCTAACCC; experiment: 19F NMR melting, i-motif signal; details: Na+ (50 mM citrate buffer); pH 5.5, 10% D2O; 250 μM DNA, two equivalents mitoxantrone (+1.1 °C at 0.3 equivalents)

Kd [1] [mM] | Kd [2] [mM] | binding [5] | Compound | binding [3] | binding [4] | ΔTm [6] [°C]
0.18 ± 0.03 | – | – | C[n+]1ccc(-c2c3nc(c(-c4cc[n+](C)cc4)c4ccc([nH]4)c(-c4cc[n+](C)cc4)c4nc(c(-c5cc[n+](C)cc5)c5ccc2[nH]5)C=C4)C=C3)cc1 | – | – | –
– | 0.07 ± 0.03 | weak | O=C1c2c(O)ccc(O)c2C(=O)c2c(NCCNCCO)ccc(NCCNCCO)c21 | yes | yes | −3.2
